From patent publication US20240407361A1, “ORGANOSULFUR COMPOUNDS AS PLANT BIOSTIMULANTS” (AHV International B.V., priority 2021, published 2024)

Columns and labels:
[1] = tested on: Lettuce Lactuca sativa “volare”; assay: Organosulfur compounds on lettuce, seed drench (Example 9); format: in vivo; settings: for Added harvest (weight) per plant compared to control (%) / Root formation (%) compared to control / Relative fresh weight/plant compared to control (%): seed drench, 1000× diluted emulsion; for Root formation (%) compared to control: control = 100; for Relative fresh weight/plant compared to control (%): control = emulsifier solution = 100; for Harvest: Fresh weight/plant: seeds drenched 10 minutes in 1000× diluted emulsion, 21 °C
Protocol: (§1) Experimental design. The bio-stimulatory effects of organosulfur compounds was tested on lettuce and sweet pepper (Capsicum annuum “Ritmico”). The tested compounds include di-n-propyl disulfide (GAS 629-19-6), di-n-propyl thiosulfonate (i.e., PTSO, CAS 1113-13-9), di-methyl thiosulfonate (GAS 2949-92-0), and di-phenyl thiosulfonate (Gas 1212-08-4). Di-methyl thiosulfonate and di-phenyl thiosulfonate were ordered from Adrich-Sigma. PTSO was purified as described in example 1. In order to obtain a stable and homogenous emulsion, the compounds were dissolved into an emulsifier solution (table 25) to assure that the crops are supplied with the defined solution. […] As examples herein, “PTSO Composition 5.2” refers to an agricultural composition comprising 5.2% PTSO and further comprises 59% emulsifier (propylene glycol and glyceryl polyethyleneglycol ricinoleate). “PTSO composition 5.2 Yuka” in an agricultural composition comprising 5.2% PTSO and 90.2% Yuka extract. “PTSO composition 5.2 Tween” in an agricultural composition comprising 5.2% PTSO, 30.1% Tween, 30.1% DMSO and 30% water.
(§2) The dosage of the test compounds was standardized on base of the molar dosage and the same molar dosage was administered as PTSO. Emulsions were prepared by adding the required amount of the compounds as indicated in table 25 in 100 ml volumes of 50% tween 80 and 50 ml DMSO. Hereafter, the volumes were supplemented to a final volume of 250 ml with the same mixture and incubation took place at an orbital shaker at 37° C. (30 minutes, 250 rpm).
Before seeding, the seeds of lettuce were drenched into 1000× diluted emulsions as indicated in table 25 and incubated for 10 minutes. Each treatment was performed in 4-fold. In table 26 the growth settings of lettuce and sweet peppers are summarized and in table 27 a summary of the realized growth conditions and crop harvest is presented of lettuce.

[2] = tested on: sweet pepper (Capsicum annuum “Ritmico”); assay: Organosulfur compounds on sweet pepper, drip (Example 9); format: in vivo; settings: no fruits yet, preliminary
Protocol: as §1, §2

CSS(C)(=O)=O [Di-methyl thiosulfonate, di-methyl thiosulfonate]
Added harvest (weight) per plant compared to control (%) [1]: 20%
Root formation (%) compared to control [1]: 115%
Relative fresh weight/plant compared to control (%) [1]: 120%
Harvest: Fresh weight/plant [1]: 1.96
Size increase over control (%) [2]: 6.1%

O=S(=O)(Sc1ccccc1)c1ccccc1 [Di-phenyl thiosulfonate, di-phenyl thiosulfonate]
Added harvest (weight) per plant compared to control (%) [1]: 3%
Root formation (%) compared to control [1]: 93.9%
Relative fresh weight/plant compared to control (%) [1]: 103%
Harvest: Fresh weight/plant [1]: 1.68
Size increase over control (%) [2]: 2.8%

CCCSSCCC [Di-propyl disulfide]
Added harvest (weight) per plant compared to control (%) [1]: 10%
Root formation (%) compared to control [1]: 109%
Relative fresh weight/plant compared to control (%) [1]: 110%
Harvest: Fresh weight/plant [1]: 1.80
Size increase over control (%) [2]: 2.8%

CCCSS(=O)(=O)CCC [PTSO, di-n-propyl thiosulfonate]
Added harvest (weight) per plant compared to control (%) [1]: 13%
Root formation (%) compared to control [1]: 110%
Relative fresh weight/plant compared to control (%) [1]: 113%
Harvest: Fresh weight/plant [1]: 1.84
Size increase over control (%) [2]: 4.2%
